Results as given in patent US5869450A, “Anti-inflammatory compositions and method with corticotropin-releasing factor analogs” (priority 1996, dated 1999).
Non-standard residues stand in square brackets, D forms with d. No end group written: not given here.

What was measured:
CRF-R1 = target: T1, CRF-R1 (Rattus norvegicus, UniProt P35353); assay: cAMP stimulation in 293-EBNA cells transfected with CRF-R1 (PC-CRF receptor); type: cell-based; details: for EC50: Table 2, cAMP, 293-EBNA stable transfectants
T1 construct: Cells were transfected with the full-length cDNA of these receptors; expressed in transfected cells
T1 sequence (P35353 24-415): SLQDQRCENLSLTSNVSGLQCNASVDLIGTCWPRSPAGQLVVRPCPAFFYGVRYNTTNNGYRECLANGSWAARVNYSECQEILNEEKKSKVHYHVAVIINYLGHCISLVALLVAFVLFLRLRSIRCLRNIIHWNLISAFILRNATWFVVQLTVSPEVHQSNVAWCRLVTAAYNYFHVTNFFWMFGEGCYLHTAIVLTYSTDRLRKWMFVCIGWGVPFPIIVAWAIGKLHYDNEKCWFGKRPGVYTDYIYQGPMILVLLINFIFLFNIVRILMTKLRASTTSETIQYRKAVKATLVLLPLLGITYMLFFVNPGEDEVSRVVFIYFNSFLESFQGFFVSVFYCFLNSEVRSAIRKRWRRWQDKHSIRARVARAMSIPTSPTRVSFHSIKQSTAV
Protocol: These were the pituitary-central nervous system (PC)-CRF receptor and the heart muscle (HM)-CRF receptor, also called CRF-R1 and CRF-R2β. Cells were transfected with the full-length cDNA of these receptors. […] Stable transfectants were incubated with 50 μM 3-isobutylmethyl-1-methylxanthine for 20 minutes at 37° C. and then peptides were added and incubated for another 20 minutes at 37° C. Levels of cAMP were assayed in sextuplicate. Cells transfected with these CRF receptors are sensitive to the cAMP stimulatory effects of CRF.

CRF-R2β = target: T2, CRF-R2β (Mus musculus, UniProt Q60748); assay: cAMP stimulation in 293-EBNA cells transfected with CRF-R2β (HM-CRF receptor); type: cell-based; details: Table 2; for EC50: cAMP, 293-EBNA stable transfectants
T2 construct: Cells were transfected with the full-length cDNA of these receptors; expressed in transfected cells
T2 sequence (Q60748 1-431 isoform Q60748-2): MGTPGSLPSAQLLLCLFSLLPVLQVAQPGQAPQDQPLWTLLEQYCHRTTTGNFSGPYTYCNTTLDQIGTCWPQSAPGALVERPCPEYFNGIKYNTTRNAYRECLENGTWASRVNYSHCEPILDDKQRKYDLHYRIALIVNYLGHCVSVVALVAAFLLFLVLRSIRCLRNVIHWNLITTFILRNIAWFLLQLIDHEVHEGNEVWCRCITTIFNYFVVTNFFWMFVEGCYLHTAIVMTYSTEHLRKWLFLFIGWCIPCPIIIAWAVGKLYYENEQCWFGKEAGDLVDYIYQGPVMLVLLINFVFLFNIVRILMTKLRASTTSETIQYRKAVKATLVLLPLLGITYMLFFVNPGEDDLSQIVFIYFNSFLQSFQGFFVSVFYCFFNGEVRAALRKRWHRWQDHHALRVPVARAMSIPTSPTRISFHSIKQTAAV
Protocol: For another assay, two types of cloned CRF receptors were assessed for their responses to the CRF analogs. These were the pituitary-central nervous system (PC)-CRF receptor and the heart muscle (HM)-CRF receptor, also called CRF-R1 and CRF-R2β. Cells were transfected with the full-length cDNA of these receptors. These procedures were performed according to Chang et al., Neuron, 11, pp. 1187-1195 (1993) and Kishimoto et al., Proc. Natl. Acad. Sci. USA, 92, pp. 1108 (1995). cDNAS for the PC-CRF receptor and the HM-CRF receptor were subcloned into expression vector pCEP4 and transfected into 293-EBNA cells. Stable transfectants were incubated with 50 μM 3-isobutylmethyl-1-methylxanthine for 20 minutes at 37° C. and then peptides were added and incubated for another 20 minutes at 37° C. Levels of cAMP were assayed in sextuplicate. Cells transfected with these CRF receptors are sensitive to the cAMP stimulatory effects of CRF. […] As noted previously, the anti-inflammatory potency of these two analogs were also identical.

ACTH release = assay: Relative ACTH-releasing potency of singly D-substituted ovine CRF analogs (FIG. 1); details: relative to unmodified oCRF
Excerpt: Turning to FIG. 1, 37 different ovine CRF analogs were singly substituted with a D-amino acid and screened for suppression of heat-induced edema and relative ACTH-releasing potency. […]

heat-induced edema [1] = details: intravenous; Wei and Kiang 1989; cited from earlier work
heat-induced edema [2] = assay: Suppression of heat-induced edema in the anesthetized rat hind paw; type: in vivo
Protocol: The index of anti-inflammatory activity was measured as suppression by heat-induced edema. Briefly, male Sprague-Dawley rats weighing 200-250 g were anesthetized with sodium pentobarbital (60 mg/kg i.p.). Saline (1 ml/kg body weight) or test substances dissolved in saline were injected i.v. via a branch of the femoral vein. Ten minutes after injection, thermal stimulus was applied to the hind paw by immersion of the foot, up to the ankle joint, in 58° C. water for 1 minute. Thirty minutes after heat exposure, animals were killed by overdose with concentrated sodium pentobarbital and both hind paws were removed at the ankle joint and weighed. The degree of heat-induced edema was estimated as the difference between the weights of the heated and unheated paws divided by the weight of the unheated paw. Four to six analogs (N≥3 animals per dose level with 3 to 4 dose levels per analog) were tested on each occasion with concurrent saline controls. The median effective dose (ED50) was calculated according to the method of Litchfield and Wilcoxon (1949).

CRF binding protein = target: T3, CRF binding protein (Homo sapiens, UniProt P24387); assay: Complex formation of I125-labelled peptide with CRF-binding protein, Sephadex G100 column; details: radio-iodinated peptide, Sephadex G100 fractions
T3 sequence (P24387 25-322): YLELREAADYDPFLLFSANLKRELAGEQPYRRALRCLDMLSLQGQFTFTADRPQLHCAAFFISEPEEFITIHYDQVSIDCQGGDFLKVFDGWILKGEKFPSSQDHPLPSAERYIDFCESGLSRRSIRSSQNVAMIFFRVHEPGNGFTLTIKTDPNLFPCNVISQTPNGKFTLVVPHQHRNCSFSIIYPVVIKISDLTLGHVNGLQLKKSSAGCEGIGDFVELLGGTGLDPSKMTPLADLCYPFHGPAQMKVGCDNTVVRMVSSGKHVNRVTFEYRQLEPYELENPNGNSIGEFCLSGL
Protocol: Both peptides were radio-iodinated with I^125, incubated with CRF-binding protein, placed on a Sephadex G100 column and the fractions collected.

rat pituitary cells = assay: In vitro ACTH release from rat pituitary segments, radioimmunoassay (FIG. 2); type: cell-based; details: ir-ACTH
Protocol: In determining ACTH release, an useful assay system to measure ACTH release by an in vitro assay is where basal or CRF-induced ACTH release is measured in the manner described by Vale et al. ("Assay of Corticotropin Releasing Factor," Methods in Enzymology: Neuroendocrine Peptides, 103, pp. 565-577, Conn. Ed., Academic Press, New York, 1983). The results shown in FIG. 2 were obtained by incubating the test peptides with segments of rat pituitary cells. After incubation the ACTH in the fluid bathing these segments were measured by radioimmunoassay (ir-ACTH) in units of pg of ACTH per mg of pituitary tissue. […] After the addition of CRF, this is increased in a dose-dependent relationship. […] However, the anti-edema potencies between these two peptides were identical.

[3] = i.v. 10 min before 58° C. water for 1 minute, paw weight 30 min after heat, 95% CL in brackets

Which EC50 (CRF-R1) does the source give for `CC[C@H](C)[C@H](NC(=O)[C@H](CO)NC(=O)[C@H](CC(C)C)NC(=O)[C@H]1CCCN1C(=O)[C@@H]1CCCN1C(=O)[C@H](CC(=O)O)NC(=O)[C@@H](N)CC(=O)O)C(=O)N[C@@H](CC(=O)O)C(=O)N[C@@H](CC(C)C)C(=O)N[C@H](C(=O)N[C@@H](Cc1ccccc1)C(=O)N[C@@H](Cc1c[nH]cn1)C(=O)N[C@@H](CC(C)C)C(=O)N[C@@H](CC(C)C)C(=O)N[C@@H](CCCNC(=N)N)C(=O)N[C@H](C(=O)N[C@@H](CC(C)C)C(=O)N[C@@H](CC(C)C)C(=O)N[C@@H](CCC(=O)O)C(=O)N[C@@H](CC(C)C)C(=O)N[C@@H](C)C(=O)N[C@@H](CCCNC(=N)N)C(=O)N[C@H](C(=O)N[C@@H](CCC(N)=O)C(=O)N[C@@H](CO)C(=O)N[C@@H](CCC(N)=O)C(=O)N[C@@H](CCCNC(=N)N)C(=O)N[C@@H](CCC(=O)O)C(=O)N[C@@H](CCCNC(=N)N)C(=O)N[C@@H](C)C(=O)N[C@@H](CCC(=O)O)C(=O)N[C@@H](CCC(N)=O)C(=O)N[C@@H](CC(N)=O)C(=O)N[C@@H](CCCNC(=N)N)C(=O)N[C@H](C(=O)N[C@H](C(=O)N[C@@H](Cc1ccccc1)C(=O)N[C@@H](CC(=O)O)C(=O)N[C@@H](CO)C(=O)N[C@H](C(N)=O)C(C)C)[C@@H](C)CC)[C@@H](C)CC)[C@@H](C)O)[C@@H](C)O)[C@@H](C)O` [[D-Pro^4]urocortin (rat)] here?
The EC50 was 0.2 nM.

What about the “Increment in Selectivity” value (CRF-R2β; D-substituted analog versus parent peptide) of the same compound?
Its value is 2.5 fold.

What about the EC50 (CRF-R2β) of the same compound?
The EC50 was 1 nM.

For `CC[C@H](C)[C@H](NC(=O)[C@H](CC(=O)O)NC(=O)[C@H](CC(C)C)NC(=O)[C@H](CC(C)C)NC(=O)[C@H](CCCCN)NC(=O)[C@H](CCCNC(=N)N)NC(=O)[C@H](CC(N)=O)NC(=O)[C@H](CO)NC(=O)[C@H](Cc1c[nH]cn1)NC(=O)[C@H](C)NC(=O)[C@H](CCC(N)=O)NC(=O)[C@H](CCC(N)=O)NC(=O)[C@H](C)NC(=O)[C@H](CC(C)C)NC(=O)[C@H](CCC(N)=O)NC(=O)[C@H](CC(=O)O)NC(=O)[C@H](C)NC(=O)[C@H](CCCCN)NC(=O)[C@@H](NC(=O)[C@H](CCSC)NC(=O)[C@H](CCC(=O)O)NC(=O)[C@H](CC(C)C)NC(=O)[C@@H](NC(=O)[C@H](CCC(=O)O)NC(=O)[C@H](CCCNC(=N)N)NC(=O)[C@H](CC(C)C)NC(=O)[C@H](CC(C)C)NC(=O)[C@H](Cc1c[nH]cn1)NC(=O)[C@H](Cc1ccccc1)NC(=O)[C@@H](NC(=O)[C@H](CC(C)C)NC(=O)[C@H](CC(=O)O)NC(=O)[C@H](CC(C)C)NC(=O)[C@H](CO)NC(=O)[C@@H](NC(=O)[C@H]1CCCN1C(=O)[C@@H]1CCCN1C(=O)[C@H](CCC(=O)O)NC(=O)[C@H](CCC(N)=O)NC(=O)[C@@H](N)CO)[C@@H](C)CC)[C@@H](C)O)C(C)C)[C@@H](C)O)C(=O)N[C@@H](C)C(N)=O` [[D-Pro^5]oCRF], which “ACTH-releasing potency retained relative to the unmodified peptide” value (ACTH release) is on record?
Its value is 8%.

Which “ED50 for suppression of heat-induced edema in the rat” value (heat-induced edema [1]) does the source give for `CC[C@H](C)[C@H](NC(=O)[C@@H](NC(=O)[C@H](CC(=O)O)NC(=O)[C@H](CC(C)C)NC(=O)[C@H](CC(C)C)NC(=O)[C@H](CC(C)C)NC(=O)[C@H](CCCNC(=N)N)NC(=O)[C@H](CC(N)=O)NC(=O)[C@H](CC(N)=O)NC(=O)[C@H](C)NC(=O)[C@H](C)NC(=O)[C@H](CCC(N)=O)NC(=O)[C@H](CCC(N)=O)NC(=O)[C@H](CCCCN)NC(=O)[C@H](CCC(=O)O)NC(=O)[C@H](CCCCN)NC(=O)[C@H](CCC(=O)O)NC(=O)[C@H](CCC(N)=O)NC(=O)[C@H](CCCCN)NC(=O)[C@H](CCC(=O)O)NC(=O)[C@@H](NC(=O)[C@H](CCC(=O)O)NC(=O)[C@@H](NC(=O)[C@H](CCSC)NC(=O)[C@H](CCCCN)NC(=O)[C@H](CCCNC(=N)N)NC(=O)[C@H](CC(C)C)NC(=O)[C@H](CC(C)C)NC(=O)[C@H](CCC(=O)O)NC(=O)[C@H](CC(C)C)NC(=O)[C@H](CO)NC(=O)[C@H](CC(C)C)NC(=O)[C@H](CC(=O)O)NC(=O)[C@@H](NC(=O)[C@H](CO)NC(=O)[C@@H](NC(=O)[C@@H]1CCCN1C(=O)[C@@H]1CCCN1C(=O)CNC(=O)[C@@H]1CCC(=O)N1)[C@@H](C)CC)[C@@H](C)CC)[C@@H](C)CC)[C@@H](C)CC)[C@@H](C)O)C(N)=O` [sauvagine] here?
Its value is 0.44 nmol/kg.

Which results are given for `CC[C@H](C)[C@H](NC(=O)[C@H](CO)NC(=O)[C@H](CC(C)C)NC(=O)[C@@H]1CCCN1C(=O)[C@@H]1CCCN1C(=O)[C@H](CC(=O)O)NC(=O)[C@@H](N)CC(=O)O)C(=O)N[C@@H](CC(=O)O)C(=O)N[C@@H](CC(C)C)C(=O)N[C@H](C(=O)N[C@@H](Cc1ccccc1)C(=O)N[C@@H](Cc1c[nH]cn1)C(=O)N[C@@H](CC(C)C)C(=O)N[C@@H](CC(C)C)C(=O)N[C@@H](CCCNC(=N)N)C(=O)N[C@H](C(=O)N[C@@H](CC(C)C)C(=O)N[C@@H](CC(C)C)C(=O)N[C@@H](CCC(=O)O)C(=O)N[C@@H](CC(C)C)C(=O)N[C@@H](C)C(=O)N[C@@H](CCCNC(=N)N)C(=O)N[C@H](C(=O)N[C@@H](CCC(N)=O)C(=O)N[C@@H](CO)C(=O)N[C@@H](CCC(N)=O)C(=O)N[C@@H](CCCNC(=N)N)C(=O)N[C@@H](CCC(=O)O)C(=O)N[C@@H](CCCNC(=N)N)C(=O)N[C@@H](C)C(=O)N[C@@H](CCC(=O)O)C(=O)N[C@@H](CCC(N)=O)C(=O)N[C@@H](CC(N)=O)C(=O)N[C@@H](CCCNC(=N)N)C(=O)N[C@H](C(=O)N[C@H](C(=O)N[C@@H](Cc1ccccc1)C(=O)N[C@@H](CC(=O)O)C(=O)N[C@@H](CO)C(=O)N[C@H](C(N)=O)C(C)C)[C@@H](C)CC)[C@@H](C)CC)[C@@H](C)O)[C@@H](C)O)[C@@H](C)O` [urocortin (rat), reference compound]?
EC50 (CRF-R1): 0.15 nM; EC50 (CRF-R2β): 0.32 nM

For “NDDPPISIDLTFHLLRNMIEMARIENEREQAGLNRKYLDEV-NH2 (C-terminus assumed) [white sucker fish urotensin I]”, which “ED50 for suppression of heat-induced edema in the rat” value (heat-induced edema [1]) is on record?
Its value is 1.5 nmol/kg.

With “NDDP[dP]ISIDLTFHLLRNMIEMARIENEREQAGLNRKYLDEV-NH2 [[D-Pro^5]white sucker fish urotensin I]” as the compound, how does the “ED50 (95% CL) μg/kg i.v.” value (heat-induced edema [2]; [3]) read?
The value was 9 (5-17) μg/kg.

What does the source list for “SEEP[dP]ISLDLTFHLLREVLEMTKADQLAQQAHSNRKLMEII-NH2 [[D-Pro^5, Thr^22, Lys^23, Asp^25]h/rCRF]”?
ED50 (95% CL) μg/kg i.v. (heat-induced edema [2]; Table 3, i.v.): 19 µg/kg; ED50 (95% CL) μg/kg i.v. (heat-induced edema [2]; [3]): 19 (9-38) μg/kg; complex formation with CRF-binding protein (CRF binding protein): did not form a complex with binding protein

With “[D-Pro^5 ] human/rat CRF [[D-Pro^5]h/rCRF]” as the compound, how does the “ED50 (95% CL) μg/kg i.v.” value (heat-induced edema [2]; Table 3, i.v.) read?
The value was 10 µg/kg.

What about the “ED50 (95% CL) μg/kg i.v.” value (heat-induced edema [2]; [3]) of the same compound?
Its value is 10 (3-33) μg/kg.

And the “decrease of potency for ACTH release versus CRF” value (rat pituitary cells)?
Its value is “at least 10 fold”.

And the “change of potency for CRF-R1 after replacement of Pro5 by D-Pro” value (CRF-R1; FIG. 3, versus h/rCRF)?
Its value is “reduced by about six-fold”.

And the “complex formation with CRF-binding protein” value (CRF binding protein)?
Its value is “formed a complex with binding protein”.
